# Target: PAR4 (Homo sapiens (Human), UniProt Q96RI0)
# Test: FLIPR assay in PAR4-expressing HEK293 cells (PAR4 antagonist activity)
# Format: cell-based
# Conditions: inhibition of H-Ala-Phe(4-F)-Pro-Gly-Trp-Leu-Val-Lys-Asn-Gly-NH2-induced intracellular calcium mobilization
# Excerpt: The FLIPR assay is an exemplary in vitro assay for measuring the activity of the PAR4 antagonists of the present invention. In this assay, intracellular calcium mobilization is induced in PAR4 expressing cells by a PAR4 agonist and calcium mobilization is monitored. See, e.g., Example A.
# HEK293 cells stably expressing PAR4 were generated by a standard method of transfection of human PAR4 (F2R23) cDNA expression vector and selected based on PAR4 protein expression or mRNA expression. […] These cells also express endogenous PAR1 and can elicit calcium signal upon stimulation with PAR1 agonist peptide. Therefore, the same cells were also used to determine selectivity against PAR1 and agonist activity for both receptors. Cells from HEK293 PAR4 Clone 1.2A (BMS Arctic ID 383940) were propagated and used for calcium mobilization studies.
# FLIPR-based calcium mobilization assay in HEK293 cells was used to measure PAR4 antagonism, agonism, and selectivity against PAR1. The activity of the PAR4 antagonists of the present invention were tested in PAR4 expressing cells by monitoring H-Ala-Phe(4-F)-[…]NH2-induced intracellular calcium mobilization. Counter screens for agonist activity and PAR1 antagonist activity were also performed. Briefly, PAR1/PAR4-expressing HEK293 cells were grown in DMEM (Life Technology, Grand Island, N.Y.) containing 10% heat-inactivated FBS, 1% Penicillin-Streptomycin, 10 μg/mL blasticidin, and 100 μg/mL Zeocin at 37° C. with 5% CO2. Cells were plated overnight prior to the experiment in a black 384-well Purecoat Amine clear bottom plate (Becton Dickinson Biosciences, San Jose, Calif.) at 10,000 cells/well in 30 μL growth medium and incubated in a humidified chamber at 37° C. with 5% CO2 overnight. Prior to compound addition, the cell medium was replaced with […] of 1× calcium and magnesium-containing Hank's Balanced Saline Solution (HBSS) (with 20 mM HEPES) and 1:1000 diluted fluorescent calcium indicator (Codex Biosolutions, Gaithersburg, Md.). After a 30 minute incubation period at 37° C. and a further 30 minute incubation and equilibration period at room temperature, 20 μL test compound (diluted in 1× HBSS buffer) was added at various concentrations at 0.17% dimethyl sulfoxide (DMSO) final concentration. Changes in fluorescence intensity were measured using a Functional Drug Screening System (FDSS, Hamamatsu, Japan) to determine agonist activities. The cells were then incubated for 30 minutes at room temperature followed by addition of 20 μL of agonist peptide for antagonist activity measurement. […] Compound potency was derived from 11-point concentration-response curves.
# The following Table sets out results obtained employing various compounds of the invention tested in the FLIPR assay. As indicated above, the FLIPR assay, an in vitro assay, measures the PAR4 antagonist activity of compounds tested as described in Example A.
# PAR4, sequence (Q96RI0 18-385): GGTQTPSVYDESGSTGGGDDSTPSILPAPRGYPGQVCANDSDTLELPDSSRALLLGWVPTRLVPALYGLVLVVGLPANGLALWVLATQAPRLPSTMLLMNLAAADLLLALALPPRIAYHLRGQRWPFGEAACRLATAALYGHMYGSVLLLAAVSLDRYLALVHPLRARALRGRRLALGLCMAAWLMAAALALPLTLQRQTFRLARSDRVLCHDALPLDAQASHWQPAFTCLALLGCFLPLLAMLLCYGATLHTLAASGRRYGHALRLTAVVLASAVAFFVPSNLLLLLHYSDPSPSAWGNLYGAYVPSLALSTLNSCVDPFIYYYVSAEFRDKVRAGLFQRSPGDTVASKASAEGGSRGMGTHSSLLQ
row,SMILES,EC50 [nM]
1,COc1cc(OCc2cccc(NC(=O)c3c(Cl)cccc3Cl)c2)c2cc(-c3cn4nc(OC)sc4n3)oc2c1 [Example 12],1.5
2,COc1cc(OCc2cccc(N(C)S(=O)(=O)c3ccccc3)c2)c2cc(-c3cn4nc(OC)sc4n3)oc2c1 [Example 91],2
3,COc1cc(OCc2cccc3c2CCN3C(=O)c2cncnc2)c2cc(-c3cn4nc(OC)sc4n3)oc2c1 [Example 126],260
4,COc1cc(OCc2ccc3c(c2)N(C(=O)c2ccccc2OC)CC3)c2cc(-c3cn4nc(OC)sc4n3)oc2c1 [Example 103],4.5
5,COc1cc(OCc2cccc3c2CCN3C(=O)c2csc(-c3ccccc3)n2)c2cc(-c3cn4nc(OC)sc4n3)oc2c1 [Example 119],1700
6,COc1cc(OCc2cccc(NC(=O)c3cccnc3)c2)c2cc(-c3cn4nc(OC)sc4n3)oc2c1 [Example 148],6.8
7,COc1cc(OCc2cccc(N(C)C(=O)c3ccccc3C)c2)c2cc(-c3cn4nc(OC)sc4n3)oc2c1 [Example 84],2.5
8,"COc1cc(OCc2cccc(NS(=O)(=O)c3ccccc3)c2)c2cc(-c3cn4nc(OC)sc4n3)oc2c1 [Example 7, N-(3-(((6-methoxy-2-(2-methoxyimidazo[2,1-b][1,3,4]thiadiazol-6-yl)benzofuran-4-yl)oxy)methyl)phenyl)benzenesulfonamide]",10
9,COc1cc(OCc2ccc3c(c2)N(C(=O)c2csc(-c4ccccc4)n2)CC3)c2cc(-c3cn4nc(OC)sc4n3)oc2c1 [Example 112],0.55
10,COc1cc(OCc2cccc(NC(=O)Cc3nc(C)sc3C)c2)c2cc(-c3cn4nc(OC)sc4n3)oc2c1 [Example 49],0.85
11,COc1cc(OCc2cccc(NC(=O)C3CCCC3)c2)c2cc(-c3cn4nc(OC)sc4n3)oc2c1 [Example 145],6.8
12,COc1cc(OCc2cccc3c2CCN3C(=O)c2ccccc2C)c2cc(-c3cn4nc(OC)sc4n3)oc2c1 [Example 122],5
13,COc1cc(OCc2cccc(NC(=O)c3cnoc3-c3ccccc3)c2)c2cc(-c3cn4nc(OC)sc4n3)oc2c1 [Example 60],2.9
14,"CNc1cccc(COc2cc(OC)cc3oc(-c4cn5nc(OC)sc5n4)cc23)c1 [Example 82, 3-(((6-Methoxy-2-(2-methoxyimidazo[2,1-b][1,3,4]thiadiazol-6-yl)benzofuran-4-yl)oxy)methyl)-N-methylaniline]",5.2
15,"COc1cc(OCc2cccc(N(C)C(=O)c3ccccc3)c2)c2cc(-c3cn4nc(OC)sc4n3)oc2c1 [Example 83, N-(3-(((6-methoxy-2-(2-methoxyimidazo[2,1-b][1,3,4]thiadiazol-6-yl)benzofuran-4-yl)oxy)methyl)phenyl)-N-methylbenzamide]",4.1
16,COc1cc(OCc2cccc(NC(=O)c3ccc(I)cc3)c2)c2cc(-c3cn4nc(OC)sc4n3)oc2c1 [Example 39],2.4
17,COc1cc(OCc2cccc(NC(=O)c3ccnc(O)c3)c2)c2cc(-c3cn4nc(OC)sc4n3)oc2c1 [Example 56],5.5
18,COc1cc(OCc2cccc(NC(=O)C(C)C)c2)c2cc(-c3cn4nc(OC)sc4n3)oc2c1 [Example 136],3.9
19,COc1cc(OCc2cccc3c2CCN3C(=O)c2csc(C(F)(F)F)n2)c2cc(-c3cn4nc(OC)sc4n3)oc2c1 [Example 118],16
20,COc1cc(OCc2cccc(NC(=O)c3cc(C(F)(F)F)ccc3C(F)(F)F)c2)c2cc(-c3cn4nc(OC)sc4n3)oc2c1 [Example 9],2
21,COc1cc(OCc2cccc(N(C)C(=O)c3ccc(OC)nc3)c2)c2cc(-c3cn4nc(OC)sc4n3)oc2c1 [Example 90],1.1
22,COc1cc(OCc2cccc(NC(=O)c3cc(OC(F)F)cc(C(F)(F)F)c3)c2)c2cc(-c3cn4nc(OC)sc4n3)oc2c1 [Example 74],0.95
23,COc1cc(OCc2cccc3c2CCN3C(C)=O)c2cc(-c3cn4nc(OC)sc4n3)oc2c1 [Example 117],> 3300
24,COc1cc(OCc2cccc(NC(=O)c3ccc(Oc4ccccc4)nc3)c2)c2cc(-c3cn4nc(OC)sc4n3)oc2c1 [Example 51],2.3
25,"COc1cc(OCc2cccc(N)c2)c2cc(-c3cn4nc(OC)sc4n3)oc2c1 [Example 4, 3-(((6-Methoxy-2-(2-methoxyimidazo[2,1-b][1,3,4]thiadiazol-6-yl)benzofuran-4-yl)oxy)methyl)aniline]",17
26,COc1cc(OCc2cccc(NC(=O)c3cc(F)cc(F)c3)c2)c2cc(-c3cn4nc(OC)sc4n3)oc2c1 [Example 159],1.6

row,SMILES,EC50 [nM]
1,COc1cc(OCc2cccc(NC(=O)c3ccc(C)nc3Cl)c2)c2cc(-c3cn4nc(OC)sc4n3)oc2c1 [Example 64],1.4
2,COc1cc(OCc2cccc(NC(=O)c3cccc(N(C)C)c3)c2)c2cc(-c3cn4nc(OC)sc4n3)oc2c1 [Example 144],3.8
3,COc1cc(OCc2cccc(NC(=O)c3c(OC)cccc3OC)c2)c2cc(-c3cn4nc(OC)sc4n3)oc2c1 [Example 162],11
4,COc1cc(OCc2cccc(NC(=O)C(C)(C)Oc3ccccc3)c2)c2cc(-c3cn4nc(OC)sc4n3)oc2c1 [Example 40],1.4
5,COc1cc(OCc2ccc3c(c2)N(C(C)=O)CC3)c2cc(-c3cn4nc(OC)sc4n3)oc2c1 [Example 107],26
6,COc1cc(OCc2cccc(NC(=O)c3c(F)cccc3F)c2)c2cc(-c3cn4nc(OC)sc4n3)oc2c1 [Example 143],5.9
7,COc1cc(OCc2cccc(NC(=O)c3cccc4ccccc34)c2)c2cc(-c3cn4nc(OC)sc4n3)oc2c1 [Example 15],1.7
8,COc1cc(OCc2cccc(NC(=O)c3ccc4c(c3)OCO4)c2)c2cc(-c3cn4nc(OC)sc4n3)oc2c1 [Example 22],1.1
9,COc1cc(OCc2ccc3c(c2)N(C(=O)c2ccccc2F)CC3)c2cc(-c3cn4nc(OC)sc4n3)oc2c1 [Example 104],2.2
10,COc1cc(OCc2cccc(NC(=O)c3ccc4ccccc4c3)c2)c2cc(-c3cn4nc(OC)sc4n3)oc2c1 [Example 23],1.8
11,COc1cc(OC)cc(C(=O)Nc2cccc(COc3cc(OC)cc4oc(-c5cn6nc(OC)sc6n5)cc34)c2)c1 [Example 137],3.4
12,COc1cc(OCc2cccc(NC(=O)c3ccc(C)nc3O)c2)c2cc(-c3cn4nc(OC)sc4n3)oc2c1 [Example 73],3.6
13,COc1cc(OCc2cccc(NC(=O)c3ccccc3OC(C)=O)c2)c2cc(-c3cn4nc(OC)sc4n3)oc2c1 [Example 8],1.6
14,COc1ccc(C(=O)Nc2cccc(COc3cc(OC)cc4oc(-c5cn6nc(OC)sc6n5)cc34)c2)cc1 [Example 18],0.91
15,COc1cc(OCc2cccc(NC(=O)COc3ccccc3)c2)c2cc(-c3cn4nc(OC)sc4n3)oc2c1 [Example 35],1
16,COc1cc(OCc2cccc(NC(=O)c3cccnc3Cl)c2)c2cc(-c3cn4nc(OC)sc4n3)oc2c1 [Example 58],0.74
17,COc1cc(OCc2cccc3c2CCN3C(=O)c2ccccc2OC)c2cc(-c3cn4nc(OC)sc4n3)oc2c1 [Example 124],190
18,COc1nn2cc(-c3cc4c(OCc5cccc(NC(=O)c6ccccc6)c5)cccc4o3)nc2s1 [Example 52],0.41
19,COc1cc(OCc2cccc(NC(=O)c3cccc(Cl)c3F)c2)c2cc(-c3cn4nc(OC)sc4n3)oc2c1 [Example 151],3.4
20,COc1cc(OCc2cccc(NC(=O)Cc3ccccc3)c2)c2cc(-c3cn4nc(OC)sc4n3)oc2c1 [Example 135],5
21,COc1cc(OCc2cccc(NC(=O)c3cc(OCc4ccccc4)cc(C(F)(F)F)c3)c2)c2cc(-c3cn4nc(OC)sc4n3)oc2c1 [Example 62],57
22,COc1cc(OCc2cccc3c2CCN3C(=O)c2ccc(F)cc2)c2cc(-c3cn4nc(OC)sc4n3)oc2c1 [Example 116],140
23,COc1cc(OCc2cccc(NC(=O)COCc3ccccc3)c2)c2cc(-c3cn4nc(OC)sc4n3)oc2c1 [Example 17],0.55
24,COc1cc(OCc2ccc3c(c2)N(C(=O)c2ccc(OC)nc2)CC3)c2cc(-c3cn4nc(OC)sc4n3)oc2c1 [Example 106],1.5
25,COc1cc(OCc2cccc(NC(=O)c3cccc(F)c3)c2)c2cc(-c3cn4nc(OC)sc4n3)oc2c1 [Example 28],2
26,COc1cc(OCc2cccc(NC(=O)c3ccccc3C(F)(F)F)c2)c2cc(-c3cn4nc(OC)sc4n3)oc2c1 [Example 13],1.9
